Source: PubChem BioAssay (NCI)
Several values for one entry are separate records, joined by “and”; a condition that tells them apart may be missing. Equal entries are not always repeated.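 Growth conditions: 96-well plates. Treatment: test compound, 48 hours, 5 concentrations. Analysis: linear interpolation between bracketing concentrations; unreached endpoints set to highest concentration. GI50 is the concentration that inhibits growth by half. Definition used: TGI = concentration required for complete inhibition of growth.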 Where a SMILES comes first, the peptide text is derived from it. [ ]: non-standard residue; d: D form. The star is where a group is joined. Dolaproine = CO[C@@H]([C@@H]1CCCN1)[C@@H](C)C(=O)O; Dil = CC[C@H](C)[C@H](NC)[C@@H](CC(=O)O)OC; X2 = C[C@@H](N*)[C@@H](O)c1ccccc1; NMeV = CN[C@H](C(=O)O)C(C)C

Tests used:
Assay in all cases: growth of human tumour cells (NCI), 48 h
[1] = tested on: SN12C renal
[2] = tested on: MOLT-4 leukemia
[3] = tested on: OVCAR-8 ovarian
[4] = tested on: 786-0 renal
[5] = tested on: HOP-62 NSCLC
[6] = tested on: A498 renal
[7] = tested on: RPMI-8226 leukemia
[8] = tested on: M14 melanoma
[9] = tested on: UO-31 renal
[10] = tested on: CAKI-1 renal
[11] = tested on: K-562 leukemia
[12] = tested on: SNB-75 CNS
[13] = tested on: SNB-19 CNS
[14] = tested on: HL-60(TB) leukemia
[15] = tested on: HS 578T breast
[16] = tested on: HCT-116 colon
[17] = tested on: SF-295 CNS
[18] = tested on: MCF7 breast
[19] = tested on: OVCAR-5 ovarian
[20] = tested on: SK-OV-3 ovarian
[21] = tested on: UACC-257 melanoma
[22] = tested on: SR leukemia
[23] = tested on: MDA-MB-435
[24] = tested on: NCI/ADR-RES ovarian
[25] = tested on: U251 CNS
[26] = tested on: MALME-3M melanoma
[27] = tested on: SF-539 CNS
[28] = tested on: HCT-15 colon
[29] = tested on: DU-145 prostate
[30] = tested on: KM12 colon
[31] = tested on: NCI-H226 lung
[32] = tested on: NCI-H460 lung
[33] = tested on: CCRF-CEM leukemia
[34] = tested on: OVCAR-4 ovarian
[35] = tested on: HT29 colon
[36] = tested on: SW-620 colon
[37] = tested on: IGROV1 ovarian
[38] = tested on: PC-3 prostate
[39] = tested on: HCC-2998 colon
[40] = tested on: ACHN renal
[41] = tested on: MDA-MB-231 breast
[42] = tested on: TK-10 renal
[43] = tested on: OVCAR-3 ovarian
[44] = tested on: NCI-H23 lung
[45] = tested on: SF-268 CNS
[46] = tested on: LOX IMVI melanoma
[47] = tested on: SK-MEL-2 melanoma
[48] = tested on: COLO 205 colon
[49] = tested on: NCI-H522 lung
[50] = tested on: SK-MEL-5 melanoma
[51] = tested on: HOP-92 NSCLC
[52] = tested on: EKVX NSCLC
[53] = tested on: A549 NSCLC
[54] = tested on: UACC-62 melanoma
[55] = tested on: BT-549 breast

In the case of `CC[C@H](C)[C@@H]([C@@H](CC(=O)N1CCC[C@H]1[C@H](OC)[C@@H](C)C(=O)N[C@H](C)[C@@H](O)c1ccccc1)OC)N(C)C(=O)[C@@H](NC(=O)[C@@H](NC)C(C)C)C(C)C` (H-[NMeV]V[Dil][Dolaproine]-X2), the GI50 [1] is reported as < 0.005 µM, the TGI [1] is reported as > 100 µM and the GI50 [2] is reported as < 0.005 µM. For the same compound, the TGI [2] was > 100 µM, the GI50 [3] was 0.00764 µM and < 0.01 µM and the TGI [3] was > 50 µM. The GI50 [4] was 0.00646 µM and < 0.01 µM, the TGI [4] was > 100 µM and the GI50 [5] was < 0.005 µM. The TGI [5] was > 100 µM, the GI50 [6] was 0.00518 µM and the TGI [6] was 0.387 µM. For the same compound, the GI50 [7] was < 0.005 µM, the TGI [7] was > 100 µM and the GI50 [8] was < 0.005 µM. The TGI [8] was 0.00705 µM, the GI50 [9] was 0.0419 µM and the TGI [9] was > 100 µM. For the same compound, the GI50 [10] was < 0.01 µM, the TGI [10] was > 94.8 µM and the GI50 [11] was < 0.005 µM. The TGI [11] was > 100 µM, the GI50 [12] was < 0.005 µM and the TGI [12] was > 50 µM. For the same compound, the GI50 [13] was < 0.005 µM, the TGI [13] was > 100 µM and the GI50 [14] was < 0.005 µM. The TGI [14] was 0.00787 µM and < 0.01 µM, the GI50 [15] was 0.0101 µM and < 0.01 µM and the TGI [15] was > 100 µM. The GI50 [16] was < 0.01 µM, the TGI [16] was > 100 µM and the GI50 [17] was < 0.005 µM. The TGI [17] was > 100 µM, the GI50 [18] was < 0.005 µM and the TGI [18] was > 100 µM. For the same compound, the GI50 [19] was < 0.005 µM, the TGI [19] was > 100 µM and the GI50 [20] was < 0.005 µM. For the same compound, the TGI [20] was > 100 µM, the TGI [21] was > 100 µM and the GI50 [22] was < 0.005 µM. The TGI [22] was > 100 µM, the GI50 [23] was < 0.005 µM and the TGI [23] was < 0.005 µM. The GI50 [24] was 0.169 µM and 0.118 µM, the TGI [24] was > 50 µM and 9.41 µM and the GI50 [25] was < 0.005 µM. For the same compound, the TGI [25] was > 100 µM, the TGI [26] was > 100 µM and the GI50 [27] was < 0.005 µM. The TGI [27] was 0.0128 µM and < 0.0107 µM, the GI50 [28] was 0.0444 µM and 0.0233 µM and the TGI [28] was > 100 µM. The GI50 [29] was < 0.005 µM, the TGI [29] was > 100 µM and the GI50 [30] was < 0.005 µM. The TGI [30] was > 100 µM, the GI50 [31] was 0.0179 µM and < 0.0156 µM and the TGI [31] was > 50 µM. For the same compound, the GI50 [32] was < 0.005 µM, the TGI [32] was > 100 µM and the GI50 [33] was < 0.005 µM. For the same compound, the TGI [33] was > 100 µM, the TGI [34] was > 100 µM and the GI50 [35] was < 0.005 µM. For the same compound, the TGI [35] was 0.154 µM, the GI50 [36] was < 0.005 µM and the TGI [36] was > 100 µM. The GI50 [37] was 0.00831 µM and < 0.01 µM, the TGI [37] was > 100 µM and the GI50 [38] was < 0.005 µM. The TGI [38] was > 100 µM, the GI50 [39] was < 0.005 µM and the TGI [39] was > 100 µM. For the same compound, the GI50 [40] was 0.024 µM and 0.0202 µM, the TGI [40] was > 100 µM and the GI50 [41] was < 0.005 µM. For the same compound, the TGI [41] was > 13.1 µM and 1.84 µM, the GI50 [42] was > 100 µM and the TGI [42] was > 100 µM. For the same compound, the GI50 [43] was < 0.01 µM, the TGI [43] was 0.651 µM and the GI50 [44] was < 0.005 µM. The TGI [44] was > 50 µM, the GI50 [45] was 0.00638 µM and < 0.0108 µM and the TGI [45] was > 100 µM. The GI50 [46] was < 0.005 µM, the TGI [46] was > 100 µM and the GI50 [47] was < 0.005 µM. For the same compound, the TGI [47] was > 100 µM, the GI50 [48] was < 0.005 µM and the TGI [48] was < 0.005 µM. For the same compound, the GI50 [49] was < 0.005 µM, the TGI [49] was 0.0122 µM and < 0.01 µM and the GI50 [50] was < 0.005 µM. The TGI [50] was 0.0505 µM and 0.0772 µM, the TGI [51] was > 100 µM and the GI50 [52] was 0.00692 µM and < 0.01 µM. For the same compound, the TGI [52] was > 100 µM, the GI50 [53] was < 0.005 µM and the TGI [53] was > 100 µM. The GI50 [54] was < 0.005 µM, the TGI [54] was > 100 µM and the GI50 [55] was < 0.005 µM and 0.0141 µM. The TGI [55] was 0.0507 µM and 0.0821 µM.
